Assay in all cases: relative viability (nuclei count vs DMSO), 5 days (fraction); higher = more cells survive
Compound in one test: CC(C)=CC[C@@H](O)C1=CC(=O)c2c(O)ccc(O)c2C1=O [Shikonin]
In outline: (§1)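 Lung cancer cell lines in 1536-well plates were kept overnight at 37 °C, then pinned with five library-drug doses (not always all listed) spaced by √10 on vehicle-anchored plates. After 5 days without medium change, cells were fixed, permeabilised and Hoechst-stained in one step, imaged at 4×, and nuclei were counted with MetaXpress. Viability is treated-well nuclei divided by vehicle-well nuclei, taken as the median over plates. Plates passed only with control CV below 25% and at least one doubling.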

Compound in test [1]: CC(C)N(CCCNC(=O)Nc1ccc(C(C)(C)C)cc1)C[C@H]1O[C@@H](n2ccc3c(N)ncnc32)[C@H](O)[C@@H]1O
In outline:
as §1

Compound in the test “Shikonin + Trametinib”: CC(C)=CC[C@@H](O)C1=CC(=O)c2c(O)ccc(O)c2C1=O [Shikonin] + CC(=O)Nc1cccc(-n2c(=O)n(C3CC3)c(=O)c3c(Nc4ccc(I)cc4F)n(C)c(=O)c(C)c32)c1 [Trametinib] (partner 0.02 µM)
In outline: (§2)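 Lung cancer cell lines, seeded in 1536-well plates, were treated the following day by pin tool with a single drug or with five library-drug doses (not always all listed) in √10 steps on top of a fixed anchor-drug dose. Cells were fixed and nuclei stained in one step after 5 days, and nuclei were counted. Relative viability is the nuclei count for treated wells divided by that for vehicle wells, reported as medians of duplicate plates.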

Compound in test [2]: CC(C)N(CCCNC(=O)Nc1ccc(C(C)(C)C)cc1)C[C@H]1O[C@@H](n2ccc3c(N)ncnc32)[C@H](O)[C@@H]1O + CC1(C)CCC(c2ccc(Cl)cc2)=C(CN2CCN(c3ccc(C(=O)NS(=O)(=O)c4ccc(N[C@H](CCN5CCOCC5)CSc5ccccc5)c(S(=O)(=O)C(F)(F)F)c4)cc3)CC2)C1 [Navitoclax] (partner 0.5 µM)
In outline: as §2

With NCI-H2347, the relative viability was found to be 0.971 in the test with Shikonin (0.01 µM); 1.07 in the test with Shikonin (0.1 µM); 1.06 with Shikonin (0.3162 µM); 0.984 in the test with Shikonin (1 µM); 1.02 in test [1] (0.08 µM); 0.963 in test [1] (0.253 µM). In addition, the relative viability in test [1] (0.8 µM) stood at 0.935; in test [1] (2.53 µM) it was 1.06; in test [1] (8 µM), 0.955; with Shikonin + Trametinib (first compound 0.01 µM), 0.272; in the test with Shikonin + Trametinib (first compound 0.1 µM), 0.273; with Shikonin + Trametinib (first compound 0.3162 µM), 0.279. Besides, the relative viability with Shikonin + Trametinib (first compound 1 µM) is 0.249; in test [2] (first compound 0.08 µM) it was 0.86; in test [2] (first compound 0.253 µM), 0.684; in test [2] (first compound 0.8 µM) it was 0.608; in test [2] (first compound 2.53 µM), 0.771; in test [2] (first compound 8 µM), 0.71.

For the cell line LCLC-97TM1, the relative viability with Shikonin (0.01 µM) stood at 0.991; with Shikonin (0.1 µM), 1.02; in the test with Shikonin (0.3162 µM), 1.08; in the test with Shikonin (1 µM) it was 0.968; in test [1] (0.08 µM), 1.05; in test [1] (0.253 µM), 1. Moreover, the relative viability came to 1.07 in test [1] (0.8 µM); 0.903 in test [1] (2.53 µM); 0.989 in test [1] (8 µM); 0.179 with Shikonin + Trametinib (first compound 0.01 µM); 0.237 with Shikonin + Trametinib (first compound 0.1 µM); 0.2 with Shikonin + Trametinib (first compound 0.3162 µM). Besides, the relative viability in the test with Shikonin + Trametinib (first compound 1 µM) came to 0.202; in test [2] (first compound 0.08 µM) it was 0.407; in test [2] (first compound 0.8 µM) it was 0.296; in test [2] (first compound 2.53 µM) it was 0.273; in test [2] (first compound 8 µM) it was 0.432.

For the cell line EPLC-272H, the relative viability with Shikonin (0.01 µM) is 0.906; in the test with Shikonin (0.1 µM), 0.974; in the test with Shikonin (0.3162 µM) it was 1.06; with Shikonin (1 µM) it was 1.09; in test [1] (0.08 µM), 0.907; in test [1] (0.253 µM) it was 0.883. The relative viability was determined as 0.968 in test [1] (0.8 µM); 0.936 in test [1] (2.53 µM); 0.859 in test [1] (8 µM); 0.286 in the test with Shikonin + Trametinib (first compound 0.01 µM); 0.335 with Shikonin + Trametinib (first compound 0.1 µM); 0.265 with Shikonin + Trametinib (first compound 0.3162 µM). Also, the relative viability with Shikonin + Trametinib (first compound 1 µM) is 0.244; in test [2] (first compound 0.08 µM) it was 1.03; in test [2] (first compound 0.253 µM), 0.981; in test [2] (first compound 0.8 µM), 0.989; in test [2] (first compound 2.53 µM), 1.12; in test [2] (first compound 8 µM) it was 1.02.

As to NCI-H1915, the relative viability worked out at 1.07 with Shikonin (0.01 µM); 1.17 with Shikonin (0.1 µM); 1.05 with Shikonin (0.3162 µM); 1.06 in the test with Shikonin (1 µM); 0.957 in test [1] (0.08 µM); 1.01 in test [1] (0.253 µM). Also, the relative viability in test [1] (0.8 µM) amounted to 0.848; in test [1] (2.53 µM), 0.947; in test [1] (8 µM), 0.942; with Shikonin + Trametinib (first compound 0.01 µM) it was 0.308; in the test with Shikonin + Trametinib (first compound 0.1 µM) it was 0.31; with Shikonin + Trametinib (first compound 0.3162 µM), 0.309. The relative viability is 0.298 with Shikonin + Trametinib (first compound 1 µM); 0.782 in test [2] (first compound 0.08 µM); 0.778 in test [2] (first compound 0.253 µM); 0.781 in test [2] (first compound 0.8 µM); 0.768 in test [2] (first compound 2.53 µM); 0.697 in test [2] (first compound 8 µM).

For the cell line NCI-H3122, the relative viability in the test with Shikonin (0.01 µM) worked out at 1.03; with Shikonin (0.1 µM) it was 1.07; with Shikonin (0.3162 µM), 1.07; in the test with Shikonin (1 µM), 1.04; in test [1] (0.08 µM), 0.978; in test [1] (0.253 µM), 0.98. For the same cell line, the relative viability in test [1] (0.8 µM) is 0.965; in test [1] (2.53 µM), 0.954; in test [1] (8 µM), 0.993; in the test with Shikonin + Trametinib (first compound 0.01 µM) it was 0.183; with Shikonin + Trametinib (first compound 0.1 µM) it was 0.292; in the test with Shikonin + Trametinib (first compound 0.3162 µM), 0.211. The relative viability with Shikonin + Trametinib (first compound 1 µM) turned out to be 0.266; in test [2] (first compound 0.08 µM), 1.03; in test [2] (first compound 0.253 µM) it was 0.997; in test [2] (first compound 0.8 µM), 1.04; in test [2] (first compound 2.53 µM), 0.985; in test [2] (first compound 8 µM) it was 0.931.

The values are drawn from the supplement of paper PMC10307832.
